Numbers after ± are expanded uncertainties.
How the values were obtained:
[1] = 101 kPa, Liquid; for viscosity: Capillary tube (Ostwald / Ubbelohde) method; for mass density: Pycnometric method
[2] = xn = mol fraction of the nth substance listed; conditions: 101 kPa, Liquid; for viscosity: Capillary tube (Ostwald / Ubbelohde) method; for mass density: Pycnometric method

OCCNCCO [diethanolamine]
[1]
Conditions	mass density [kg/m3]	viscosity [mPa·s]
293.15 K	1096.1 ± 2.3	890.9 ± 49
303.15 K	1089.8 ± 2.2	382.2 ± 18
313.15 K	1083.7 ± 2.2	187.6 ± 7.4
323.15 K	1077.4 ± 2.2	99.11 ± 3.4
333.15 K	1070.7 ± 2.2	58.12 ± 1.9

CCCCOCCOCCO [3,6-dioxa-1-decanol]
[1]
Conditions	mass density [kg/m3]	viscosity [mPa·s]
293.15 K	952.9 ± 2.1	5.84 ± 0.18
303.15 K	943.5 ± 2	4.23 ± 0.13
313.15 K	935.7 ± 2	3.22 ± 0.1
323.15 K	926.6 ± 2	2.51 ± 0.08
333.15 K	918.5 ± 2	2 ± 0.06

NCCO [2-aminoethan-1-ol]
[1]
Conditions	mass density [kg/m3]	viscosity [mPa·s]
293.15 K	1016.1 ± 2.1	24.14 ± 0.76
303.15 K	1008.4 ± 2.1	14.88 ± 0.48
313.15 K	1000.1 ± 2.1	9.93 ± 0.32
323.15 K	991.9 ± 2.1	6.89 ± 0.22
333.15 K	983.6 ± 2.1	4.97 ± 0.16

CCCCOCCOCCO [3,6-dioxa-1-decanol] + OCCN(CCO)CCO
[2], x1 = 1
Conditions	mass density [kg/m3]	viscosity [mPa·s]
293.15 K	952.9 ± 2.1	5.84 ± 0.18
303.15 K	943.5 ± 2	4.23 ± 0.13
313.15 K	935.7 ± 2	3.22 ± 0.1
323.15 K	926.6 ± 2	2.51 ± 0.08
333.15 K	918.5 ± 2	2 ± 0.06

OCCNCCO [diethanolamine] + CCCCOCCOCCO
[2], x2 = 0
Conditions	mass density [kg/m3]	viscosity [mPa·s]
293.15 K	1096.1 ± 2.3	890.9 ± 49
303.15 K	1089.8 ± 2.2	382.2 ± 18
313.15 K	1083.7 ± 2.2	187.6 ± 7.4
323.15 K	1077.4 ± 2.2	99.11 ± 3.4
333.15 K	1070.7 ± 2.2	58.12 ± 1.9

NCCO [2-aminoethan-1-ol] + CCCCOCCOCCO
[2], x2 = 0
Conditions	mass density [kg/m3]	viscosity [mPa·s]
293.15 K	1016.1 ± 2.1	24.14 ± 0.76
303.15 K	1008.4 ± 2.1	14.88 ± 0.48
313.15 K	1000.1 ± 2.1	9.93 ± 0.32
323.15 K	991.9 ± 2.1	6.89 ± 0.22
333.15 K	983.6 ± 2.1	4.97 ± 0.16

OCCN(CCO)CCO [triethanolamine]
[1]
Conditions	mass density [kg/m3]	viscosity [mPa·s]
293.15 K	1124.3 ± 2.3	917.6 ± 51
303.15 K	1118.5 ± 2.3	404.7 ± 19
313.15 K	1112.8 ± 2.3	203.9 ± 8.2
323.15 K	1107.1 ± 2.3	108.3 ± 3.8
333.15 K	1101.5 ± 2.3	64.2 ± 2.2
